What was measured:
Experiment in all cases: relative viability (nuclei count vs DMSO), 5 days (fraction); higher = more cells survive
[1] = compound: O=S(=O)(c1ccccc1)N(CC(F)(F)F)c1ccc(C(O)(C(F)(F)F)C(F)(F)F)cc1 + CS(=O)(=O)CCNCc1ccc(-c2ccc3ncnc(Nc4ccc(OCc5cccc(F)c5)c(Cl)c4)c3c2)o1 [Lapatinib] (partner 2 µM)
Outline: (§1)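 Relative viability equals treated-well nuclei counts divided by vehicle-well nuclei counts. Counts came from 4× images of lung cancer cell lines grown in 1536-well plates for 5 days after pin-tool dosing on the day after seeding. Dosing used one drug alone or a fixed anchor-drug dose plus five library-drug doses (not always all listed) in √10 steps, and values are medians of duplicate plates.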

RO-3306 + Tozasertib = compound: C1=CC2=C(C=CC(=C2)C=C3C(=O)NC(=NCC4=CC=CS4)S3)N=C1 [RO-3306] + Cc1cc(Nc2cc(N3CCN(C)CC3)nc(Sc3ccc(NC(=O)C4CC4)cc3)n2)n[nH]1 [Tozasertib] (partner 0.1 µM)
Outline: as §1

RO-3306 + Linsitinib = compound: C1=CC2=C(C=CC(=C2)C=C3C(=O)NC(=NCC4=CC=CS4)S3)N=C1 [RO-3306] + C[C@]1(O)C[C@@H](c2nc(-c3ccc4ccc(-c5ccccc5)nc4c3)c3c(N)nccn32)C1 [Linsitinib] (partner 1 µM)
Outline: as §1

RO-3306 + Olaparib = compound: C1=CC2=C(C=CC(=C2)C=C3C(=O)NC(=NCC4=CC=CS4)S3)N=C1 [RO-3306] + O=C(c1cc(Cc2n[nH]c(=O)c3ccccc23)ccc1F)N1CCN(C(=O)C2CC2)CC1 [Olaparib] (partner 8 µM)
Outline: as §1

Cell Line | relative viability ([1]; first compound 0.8 µM) | relative viability ([1]; first compound 2.53 µM) | relative viability ([1]; first compound 8 µM) | relative viability (RO-3306 + Tozasertib; first compound 0.01 µM) | relative viability (RO-3306 + Tozasertib; first compound 0.03162 µM) | relative viability (RO-3306 + Tozasertib; first compound 0.1 µM) | relative viability (RO-3306 + Tozasertib; first compound 0.3162 µM) | relative viability (RO-3306 + Tozasertib; first compound 1 µM) | relative viability (RO-3306 + Linsitinib; first compound 0.01 µM) | relative viability (RO-3306 + Linsitinib; first compound 0.03162 µM) | relative viability (RO-3306 + Linsitinib; first compound 0.1 µM) | relative viability (RO-3306 + Linsitinib; first compound 0.3162 µM) | relative viability (RO-3306 + Linsitinib; first compound 1 µM) | relative viability (RO-3306 + Olaparib; first compound 0.01 µM) | relative viability (RO-3306 + Olaparib; first compound 0.1 µM) | relative viability (RO-3306 + Olaparib; first compound 0.3162 µM) | relative viability (RO-3306 + Olaparib; first compound 1 µM) | relative viability (RO-3306 + Olaparib; first compound 0.03162 µM)
NCI-H1793 | 0.675 | 0.471 | 0.522 | 0.313 | 0.344 | 0.338 | 0.283 | 0.291 | 1.1 | 0.624 | 0.931 | 1.05 | 1.01 | 0.686 | 0.789 | 0.893 | 0.954 | –
NCI-H1915 | 1.05 | 0.995 | 1.02 | 0.498 | 0.406 | 0.416 | 0.394 | 0.427 | 1.16 | 1.11 | 1.08 | 1.08 | 1.07 | 0.276 | 0.263 | 0.246 | 0.255 | 0.235
NCI-H1944 | 0.897 | 0.856 | 0.951 | 0.235 | 0.25 | 0.234 | 0.259 | 0.242 | 1.22 | 1.07 | 1.08 | 1.36 | 1.17 | 0.443 | 0.346 | 0.414 | 0.433 | 0.439
NCI-H1975 | 1.32 | 0.99 | 1.01 | 0.834 | 0.871 | 0.769 | 0.718 | 0.284 | 1.11 | 0.981 | 1.01 | 0.891 | 0.913 | 1.07 | 0.835 | 0.918 | 0.953 | 0.711
NCI-H1993 | 0.813 | 0.613 | 0.849 | 0.649 | 0.582 | 0.558 | 0.573 | 0.605 | – | 0.711 | 0.678 | 0.732 | 0.695 | 0.993 | 1.02 | 0.995 | 0.415 | 0.878
NCI-H2009 | 0.922 | 0.804 | 0.844 | 0.816 | 0.707 | 0.722 | 0.671 | 0.707 | 1.22 | 1.12 | 1.18 | 1.23 | 1.23 | 0.789 | 0.694 | 0.796 | 0.727 | 0.684
NCI-H2023 | 0.742 | 0.743 | 0.55 | 0.401 | 0.327 | 0.254 | 0.241 | 0.308 | 0.607 | 0.566 | 0.637 | 0.798 | 0.585 | 0.469 | 0.422 | 0.463 | 0.379 | 0.437
NCI-H2085 | 0.759 | 0.677 | 0.65 | 0.763 | 0.775 | 0.78 | 0.712 | 0.641 | 0.882 | 0.755 | 0.884 | 0.866 | 0.84 | 0.699 | 0.811 | 0.714 | 0.757 | 0.685
NCI-H2087 | 0.922 | 0.988 | 0.994 | 0.254 | 0.19 | 0.214 | 0.228 | 0.217 | 0.977 | 0.982 | 1.06 | 1.05 | 0.928 | 0.626 | 0.671 | 0.723 | 0.656 | 0.476
NCI-H2126 | 0.868 | 0.791 | 0.905 | 0.867 | 0.841 | 0.781 | 0.749 | 0.75 | 0.678 | 0.709 | 0.775 | 0.678 | 0.635 | 0.945 | 0.902 | 0.9 | 0.932 | 0.901
NCI-H2228 | 1.32 | 0.964 | 1.5 | 0.225 | 0.219 | 0.221 | 0.168 | 0.223 | 0.963 | 0.529 | 0.678 | 0.655 | 0.617 | 0.603 | 0.645 | 0.654 | 0.524 | 0.601
NCI-H2347 | 1.02 | 1.03 | 0.963 | 0.616 | 0.616 | 0.628 | 0.525 | 0.514 | 1.01 | 0.877 | 0.999 | 1.01 | 0.795 | 0.598 | 0.565 | 0.464 | 0.594 | 0.596
NCI-H2405 | 1.01 | 0.962 | 1.15 | 0.746 | 0.723 | 0.704 | 0.675 | 0.628 | 0.994 | 0.873 | 0.896 | 0.921 | 0.944 | 0.844 | 0.887 | 0.899 | 0.732 | 0.863
NCI-H3122 | 0.975 | 0.897 | 1.03 | 0.449 | 0.413 | 0.42 | 0.475 | 0.284 | 1.1 | 0.995 | 1.02 | 0.981 | 1.03 | 0.707 | 0.604 | 0.61 | 0.604 | 0.561
PC-3 [JPC-3] | 0.482 | 0.421 | 0.452 | 0.872 | 0.825 | 0.892 | 0.852 | 0.416 | 0.947 | 0.968 | 0.996 | 0.963 | 0.971 | 1.21 | 1.11 | 1.17 | 1.12 | 1.07
PC-14 | 0.26 | 0.191 | 0.223 | 0.78 | 0.572 | 0.527 | 0.562 | 0.488 | 0.989 | 0.773 | 0.969 | 1.02 | 0.991 | 0.298 | 0.235 | 0.227 | 0.237 | 0.232
RERF-LC-KJ | 0.828 | 0.715 | 0.693 | 0.634 | 0.434 | 0.546 | 0.521 | 0.463 | 0.956 | 0.831 | 0.902 | 0.974 | 1 | 0.888 | 0.837 | 0.835 | 1.08 | 0.902

From the supplement of paper PMC10307832
